Laboratory results from US20220289794A1, “SYNTHETIC ANTIMICROBIAL PEPTIDES” (priority 2019, published 2022).
≈ marks a conversion by molar mass, not a printed value. Non-standard residues stand in square brackets, D forms with d. Residues, ends and D or L forms follow the SMILES beside them. Dip = N[C@H](C(=O)O)C(c1ccccc1)c1ccccc1; 2Nal = N[C@@H](Cc1ccc2ccccc2c1)C(=O)O; d2Nal = N[C@H](Cc1ccc2ccccc2c1)C(=O)O; Dab = NCC[C@H](N)C(=O)O

Columns and labels:
[1] = system: Pseudomonas aeruginosa (ATCC 27883); conditions: ATCC 27883
[2] = system: Methicillin-resistant Staphylococcus aureus MRSA (ATCC BAA-1556); conditions: ATCC BAA-1556
[3] = system: S. aureus ATCC 29213; conditions: ATCC 29213
[4] = system: Escherichia coli (ATCC 25922); conditions: ATCC 25922
[5] = system: human red blood cells; set-up: unit not given beside the values

SMILES	MIC P. aeruginosa ATCC 27883 [1] [µg/mL]	MIC MRSA ATCC BAA-1556 [2] [µg/mL]	MIC S. aureus ATCC 29213 [3] [µg/mL]	MIC E. coli ATCC 25922 [4] [µg/mL]	HC50 [5]
N=C(N)NCCC[C@H](NC(=O)[C@H](CCCNC(=N)N)NC(=O)[C@H](CCCNC(=N)N)NC(=O)[C@H](CCCNC(=N)N)NC(=O)[C@@H](N)CCCNC(=N)N)C(=O)N[C@@H](Cc1ccc2ccccc2c1)C(=O)N[C@@H](Cc1ccc2ccccc2c1)C(=O)N[C@@H](Cc1ccc2ccccc2c1)C(=O)O [IFX-013-1, NH2-Arg-Arg-Arg-Arg-Arg-NaI-NaI-NaI-OH] (H-RRRRR[2Nal][2Nal][2Nal]-OH)	25 (≈ 18 µM)	3.1 (≈ 2.23 µM)	3.1 (≈ 2.23 µM)	25 (≈ 18 µM)	200
N=C(N)NCCC[C@@H]1NC(=O)[C@@H](CCCNC(=N)N)NC(=O)[C@H](Cc2c[nH]c3ccccc23)NC(=O)[C@@H](Cc2c[nH]c3ccccc23)NC(=O)[C@H](Cc2c[nH]c3ccccc23)NC(=O)[C@@H](Cc2c[nH]c3ccccc23)NC(=O)[C@H](CCCNC(=N)N)NC(=O)[C@@H](CCCNC(=N)N)NC1=O [IFX-034, c[arg-Arg-arg-Arg-trp-Trp-trp-Trp]] (cyclo(R[dR]R[dW]W[dW]W[dR]))	25 (≈ 18.3 µM)	6.2 (≈ 4.53 µM)	6.2 (≈ 4.53 µM)	12.5 (≈ 9.13 µM)	320
N=C(N)NCCC[C@@H]1NC(=O)[C@H](CCN)NC(=O)[C@@H](CCCNC(=N)N)NC(=O)[C@H](CCCNC(=N)N)NC(=O)[C@@H](Cc2ccc3ccccc3c2)NC(=O)[C@@H](Cc2ccc3ccccc3c2)NC(=O)[C@H](Cc2c[nH]c3ccccc23)NC(=O)[C@@H](CCCNC(=N)N)NC1=O [IFX-055, c[Arg-arg-Dab-Arg-arg-Trp-naI-naI]] (cyclo([Dab]R[dR]W[d2Nal][d2Nal]R[dR]))	32 (≈ 24.5 µM)	32 (≈ 24.5 µM)	32 (≈ 24.5 µM)	16 (≈ 12.3 µM)	575
N=C(N)NCCC[C@H](NC(=O)[C@H](CCCNC(=N)N)NC(=O)[C@@H](N)CCCNC(=N)N)C(=O)N[C@@H](Cc1ccc2ccccc2c1)C(=O)N[C@@H](Cc1ccc2ccccc2c1)C(=O)N[C@@H](Cc1ccc2ccccc2c1)C(=O)O [IFX-003-1, NH2-Arg-Arg-Arg-NaI -NaI-NaI-OH] (H-RRR[2Nal][2Nal][2Nal]-OH)	25 (≈ 23.2 µM)	3.1 (≈ 2.87 µM)	3.1 (≈ 2.87 µM)	16 (≈ 14.8 µM)	310
N=C(N)NCCC[C@@H]1NC(=O)[C@H](CCCNC(=N)N)NC(=O)[C@H](CCCNC(=N)N)NC(=O)[C@H](C(c2ccccc2)c2ccccc2)NC(=O)[C@H](C(c2ccccc2)c2ccccc2)NC(=O)[C@H](C(c2ccccc2)c2ccccc2)NC(=O)[C@H](CCCNC(=N)N)NC(=O)[C@H](CCCNC(=N)N)NC1=O [IFX-012, c[Arg-Arg-Arg-Arg-Arg-Dip-Dip-Dip]] (cyclo([Dip][Dip][Dip]RRRRR))	25 (≈ 17.2 µM)	6.2 (≈ 4.27 µM)	6.2 (≈ 4.27 µM)	25 (≈ 17.2 µM)	195
N=C(N)NCCC[C@@H]1NC(=O)[C@H](CCCNC(=N)N)NC(=O)[C@H](CCCNC(=N)N)NC(=O)[C@H](Cc2ccc3ccccc3c2)NC(=O)[C@H](Cc2ccc3ccccc3c2)NC(=O)[C@H](Cc2ccc3ccccc3c2)NC(=O)[C@H](Cc2ccc3ccccc3c2)NC(=O)[C@H](CCCNC(=N)N)NC1=O [IFX-006, c[Arg-Arg-Arg-Arg-NaI-NaI-NaI-NaI]] (cyclo([2Nal][2Nal][2Nal][2Nal]RRRR))	50 (≈ 35.4 µM)	6.2 (≈ 4.39 µM)	3.1 (≈ 2.19 µM)	25 (≈ 17.7 µM)	120
N=C(N)NCCC[C@H](NC(=O)[C@H](CCCNC(=N)N)NC(=O)[C@@H](N)CCCNC(=N)N)C(=O)N[C@@H](CCCNC(=N)N)C(=O)N[C@H](C(=O)N[C@H](C(=O)N[C@@H](Cc1c[nH]c2ccccc12)C(=O)O)C(c1ccccc1)c1ccccc1)C(c1ccccc1)c1ccccc1 [IFX-028-1, NH2-R-R-R-R-Dip-Dip-Trp-OH] (H-RRRR[Dip][Dip]W-OH)	50 (≈ 39.2 µM)	6.2 (≈ 4.86 µM)	6.2 (≈ 4.86 µM)	25 (≈ 19.6 µM)	570
N=C(N)NCCC[C@@H]1NC(=O)[C@H](CCCNC(=N)N)NC(=O)[C@H](CCCNC(=N)N)NC(=O)[C@H](C(c2ccccc2)c2ccccc2)NC(=O)[C@H](C(c2ccccc2)c2ccccc2)NC(=O)[C@H](C(c2ccccc2)c2ccccc2)NC(=O)[C@H](C(c2ccccc2)c2ccccc2)NC(=O)[C@H](CCCNC(=N)N)NC1=O [IFX-005, c[Arg-Arg-Arg-Arg-Dip-Dip-Dip-Dip]] (cyclo([Dip][Dip][Dip][Dip]RRRR))	25 (≈ 16.5 µM)	6.2 (≈ 4.08 µM)	3.1 (≈ 2.04 µM)	25 (≈ 16.5 µM)	95
N=C(N)NCCC[C@H](NC(=O)[C@H](CCCNC(=N)N)NC(=O)[C@@H](N)CCCNC(=N)N)C(=O)N[C@@H](Cc1ccc2ccccc2c1)C(=O)N[C@@H](Cc1ccc2ccccc2c1)C(=O)N[C@@H](Cc1c[nH]c2ccccc12)C(=O)O [IFX-025-1, NH2-R-R-R-NaI-NaI-Trp-OH] (H-RRR[2Nal][2Nal]W-OH)	50 (≈ 46.8 µM)	12.5 (≈ 11.7 µM)	12.5 (≈ 11.7 µM)	25 (≈ 23.4 µM)	375
N=C(N)NCCC[C@@H]1NC(=O)[C@@H](CCCNC(=N)N)NC(=O)[C@H](CCCNC(=N)N)NC(=O)[C@@H](Cc2ccc3ccccc3c2)NC(=O)[C@@H](Cc2ccc3ccccc3c2)NC(=O)[C@H](Cc2c[nH]c3ccccc23)NC(=O)[C@H](CCN)NC(=O)[C@@H](CCCNC(=N)N)NC1=O [IFX-054, c[Arg-arg-Arg-arg-Dab-Trp-naI-naI]] (cyclo([Dab]W[d2Nal][d2Nal]R[dR]R[dR]))	64 (≈ 49 µM)	64 (≈ 49 µM)	32 (≈ 24.5 µM)	32 (≈ 24.5 µM)	620
N=C(N)NCCC[C@@H]1NC(=O)[C@H](CCN)NC(=O)[C@@H](Cc2ccc3ccccc3c2)NC(=O)[C@@H](Cc2ccc3ccccc3c2)NC(=O)[C@H](Cc2c[nH]c3ccccc23)NC(=O)[C@@H](CCCNC(=N)N)NC(=O)[C@H](CCCNC(=N)N)NC(=O)[C@@H](CCCNC(=N)N)NC1=O [IFX-056, c[Dab-Arg-arg-Arg-arg-Trp-naI-naI]] (cyclo([Dab]R[dR]R[dR]W[d2Nal][d2Nal]))	32 (≈ 24.5 µM)	64 (≈ 49 µM)	32 (≈ 24.5 µM)	32 (≈ 24.5 µM)	415
N=C(N)NCCC[C@H]1NC(=O)[C@H](Cc2c[nH]c3ccccc23)NC(=O)[C@H](Cc2c[nH]c3ccccc23)NC(=O)[C@H](Cc2c[nH]c3ccccc23)NC(=O)[C@H](Cc2c[nH]c3ccccc23)NC(=O)[C@@H](CCCNC(=N)N)NC(=O)[C@@H](CCCNC(=N)N)NC(=O)[C@@H](CCCNC(=N)N)NC1=O [IFX-036, c[arg-arg-arg-arg-Trp-Trp-Trp-Trp]] (cyclo([dR][dR][dR][dR]WWWW))	25 (≈ 18.3 µM)	6.2 (≈ 4.53 µM)	6.2 (≈ 4.53 µM)	12.5 (≈ 9.13 µM)	600
N=C(N)NCCC[C@@H]1NC(=O)[C@H](CCCNC(=N)N)NC(=O)[C@H](CCCNC(=N)N)NC(=O)[C@H](Cc2ccc3ccccc3c2)NC(=O)[C@H](Cc2ccc3ccccc3c2)NC(=O)[C@H](Cc2ccc3ccccc3c2)NC(=O)[C@H](CCCNC(=N)N)NC(=O)[C@H](CCCNC(=N)N)NC1=O [IFX-013, c[Arg-Arg-Arg-Arg-Arg-NaI-NaI-NaI]] (cyclo([2Nal][2Nal][2Nal]RRRRR))	25 (≈ 18.2 µM)	6.2 (≈ 4.52 µM)	6.2 (≈ 4.52 µM)	50 (≈ 36.4 µM)	230
N=C(N)NCCC[C@@H]1NC(=O)[C@H](CCN)NC(=O)[C@@H](CCCNC(=N)N)NC(=O)[C@H](CCCNC(=N)N)NC(=O)[C@@H](Cc2ccc3ccccc3c2)NC(=O)[C@@H](Cc2ccc3ccccc3c2)NC(=O)[C@H](Cc2c[nH]c3ccccc23)NC(=O)[C@H](CCN)NC(=O)[C@@H](CCCNC(=N)N)NC1=O [IFX-059, c[Arg-arg-Dab-Arg-arg-Dab-Trp-naI-naI]] (cyclo([Dab]R[dR][Dab]W[d2Nal][d2Nal]R[dR]))	32 (≈ 22.8 µM)	128 (≈ 91.1 µM)	64 (≈ 45.5 µM)	32 (≈ 22.8 µM)	780
N=C(N)NCCC[C@H](NC(=O)[C@H](CCCNC(=N)N)NC(=O)[C@@H](N)CCCNC(=N)N)C(=O)N[C@@H](CCCNC(=N)N)C(=O)N[C@H](C(=O)N[C@H](C(=O)N[C@H](C(=O)N[C@H](C(=O)O)C(c1ccccc1)c1ccccc1)C(c1ccccc1)c1ccccc1)C(c1ccccc1)c1ccccc1)C(c1ccccc1)c1ccccc1 [IFX-005-1, NH2-Arg-Arg-Arg-Arg-Dip-Dip-Dip-Dip-OH] (H-RRRR[Dip][Dip][Dip][Dip]-OH)	50 (≈ 32.6 µM)	6.2 (≈ 4.04 µM)	6.2 (≈ 4.04 µM)	50 (≈ 32.6 µM)	135
N=C(N)NCCC[C@@H]1NC(=O)CNC(=O)[C@H](Cc2c[nH]c3ccccc23)NC(=O)[C@H](Cc2c[nH]c3ccccc23)NC(=O)[C@H](Cc2c[nH]c3ccccc23)NC(=O)[C@H](Cc2c[nH]c3ccccc23)NC(=O)CNC(=O)[C@H](CCCNC(=N)N)NC(=O)[C@H](CCCNC(=N)N)NC(=O)[C@H](CCCNC(=N)N)NC1=O [IFX-043] (cyclo(GRRRRGWWWW))	50 (≈ 33.7 µM)	6.2 (≈ 4.18 µM)	6.2 (≈ 4.18 µM)	25 (≈ 16.8 µM)	580
